Here are results for one substance from patent publication KR20160024853A, “당뇨병 치료를 위한 주사형 나노-네트워크 겔” (메사추세츠 인스티튜트 오브 테크놀로지, priority 2013, dated 2016).

For series [1], the system named is STZ-induced diabetic mice (male C57B6). The experiment in a line: Blood glucose control in STZ-induced diabetic mice after one subcutaneous injection. It counts as in vivo, mouse. The conditions noted are these: after administration.
Series [2] is described as follows: Plasma human insulin in STZ-induced diabetic mice (human insulin ELISA). Particulars: mouse, in vivo. (An ELISA detects its analyte on a solid surface through an enzyme-linked reagent.)

As to “인슐린 용액: human recombinant insulin solution (zinc salt, Invitrogen)”, in series [1], the “time when BG rose to the hyperglycemic range” value was “둘째 날”. Also, the “plasma insulin concentration on the day after administration” value in series [2] is reported as “급격한 감소”.
